Measurements: ChEMBL document CHEMBL4665910, “Novel Thienopyridines as RIPK2 Inhibitors for Treating Inflammatory Bowel Disease” (ACS Med Chem Lett, 2020)
pIC50: −log10 of the molar value. Each block holds one compound with its values, some of them ahead of it.

Biological target: Receptor-interacting serine/threonine-protein kinase 2 (Homo sapiens, UniProt O43353)
Test: Inhibition of RIPK2 (unknown origin) incubated for 1 hr by Lanthascreen TR-FRET assay

Sequence of Receptor-interacting serine/threonine-protein kinase 2 (O43353 whole entry): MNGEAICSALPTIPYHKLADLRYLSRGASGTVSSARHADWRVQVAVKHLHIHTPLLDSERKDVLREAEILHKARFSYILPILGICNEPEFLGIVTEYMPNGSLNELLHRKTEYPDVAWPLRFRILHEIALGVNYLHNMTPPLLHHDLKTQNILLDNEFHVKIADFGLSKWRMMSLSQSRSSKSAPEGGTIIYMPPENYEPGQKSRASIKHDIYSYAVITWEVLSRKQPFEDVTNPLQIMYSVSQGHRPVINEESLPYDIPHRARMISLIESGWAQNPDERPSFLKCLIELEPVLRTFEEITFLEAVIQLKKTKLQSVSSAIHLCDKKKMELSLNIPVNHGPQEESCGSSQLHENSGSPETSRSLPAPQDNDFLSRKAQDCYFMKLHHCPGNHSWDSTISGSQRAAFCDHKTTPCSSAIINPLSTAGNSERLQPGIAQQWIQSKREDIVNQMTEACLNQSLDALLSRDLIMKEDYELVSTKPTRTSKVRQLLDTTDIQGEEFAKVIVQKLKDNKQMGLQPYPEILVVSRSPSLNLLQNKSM

SMILES: CC1NCCC1c1cc2c(Nc3cc4ncsc4cc3F)ccnc2s1 (stereo unspecified)
pIC50: ≥ 8.00

SMILES: CC1NCCC=C1c1cc2c(Nc3ccc4scnc4c3)ccnc2s1 (stereo unspecified)
pIC50: ≥ 8.00

SMILES: CC1C(c2cc3c(Nc4ccc5scnc5c4)c(F)cnc3s2)CCCN1C (stereo unspecified)
pIC50: ≥ 8.00

Results, then the compound that gave them:

pIC50: ≥ 8.00
SMILES: C1=C(c2cc3c(Nc4ccc5scnc5c4)ccnc3s2)C2(CCOCC2)NC1

pIC50: ≥ 8.00
SMILES: C1=C(c2cc3c(Nc4ccc5scnc5c4)ccnc3s2)CCNCC1

pIC50: ≥ 8.00
SMILES: C1=C(c2cc3c(Nc4ccc5scnc5c4)ccnc3s2)C2(CCOC2)NC1 (stereo unspecified)
